From publication PMC9411704, “Assessment of the Carcinogenic Potential of Pretomanid in Transgenic Tg.rasH2 Mice” (International Journal of Toxicology, 2022)

Tests used:
[1] = Mass balance study in humans using 14C-labelled pretomanid; type: in vivo; conditions: human, plasma, oral; 6% of the pretomanid therapeutic AUC0-24, 200 mg/day; read-out: Estimated human AUC0-24 of M50
[2] = set-up: method as in unpublished data; conditions: humans, 14C-labelled pretomanid; ref unpublished data; cited from earlier work
[3] = tested on: mouse lymphoma cells; test: Non-GLP in vitro mouse lymphoma assay; type: cell-based; conditions: concentrations up to 1000 μg/mL, data not shown
[4] = tested on: CD-1(ICR) BR mice, bone marrow erythrocytes; test: Bone marrow micronucleus assay in mice; type: in vivo
Description: Groups of male CD-1®(ICR) BR mice were given single oral doses of vehicle (0.4% CMC), positive control article, or pretomanid at 125, 500 or 2000 mg/kg and then were euthanized approximately 24 or 48 hours later to harvest femoral bone marrow. Bone marrow was mounted on slides and stained with May-Grünwald solution and Giemsa. For each mouse, 500 red blood cells were examined to determine the ratio of immature red blood cells (polychromatophilic erythrocytes or PCEs) to mature red blood cells (normochromatophilic erythrocytes of NCEs) and 2000 PCEs were examined to determine the ratio of micronucleated PCEs (mnPCEs) to normal PCEs.
The mean PCE-to-NCE ratios in various groups were compared to reach conclusions about assay validity and effects on erythropoiesis. The mean mnPCE-to-PCE ratios in various groups were compared to reach conclusions about assay validity and clastogenicity. Comparisons were made using an analysis of variance on untransformed mnPCE-to-PCE ratios for each mouse and on untransformed PCE-to-NCE ratios when the variances were homogeneous. Ranked proportions were used for heterogeneous variances. […] Comparisons were made at the 5% probability level.

[5] = tested on: CHO-K1 cells; test: Chromosome aberration assay in CHO cells
Description: CHO-K1 cells (American Type Culture Collection) were exposed to pretomanid at 22.5 to 360 μg/mL for 4 hours with and without added S9 mix and for 20 hours without added S9 mix. All cells were harvested 20 hours after treatment initiation. The assay was performed using standard procedures, [13] including duplicate cultures and appropriate negative and positive controls. Under each set of conditions, three test concentrations were evaluated. The highest was the lowest precipitating concentration, and two additional lower concentrations also were evaluated.
After incubation, cells were harvested and placed on slides, which were examined microscopically to determine relative mitotic index and to evaluate metaphase spreads for structural or numerical chromosome aberrations. Where possible, 200 metaphase spreads were evaluated. The mean numbers of aberrations in various cultures were compared to reach conclusions about assay validity and clastogenic potential.

Row | Compound | AUC(0-t) [1] [ng·h/mL] | M50 metabolite as % of the parent compound [2] [%] | Genotoxicity in mouse lymphoma assay [3] | mnPCE-to-PCE ratio ([4]; any dose level (125, 500, 2000 mg/kg), 24 or 48 h) | Effect on erythropoiesis (PCE:NCE ratio) ([4]; single oral 125, 500 or 2000 mg/kg) | Clastogenic potential in vivo ([4]; single oral doses up to 2000 mg/kg) | Cytotoxicity in CHO cells ([5]; 22.5 to 360 μg/mL, 4 h ±S9, 20 h −S9) | Frequency of chromosome aberrations ([5]; any concentration, P>0.05) | Clastogenic potential in mammalian cells in vitro ([5]; up to 360 μg/mL, 4 h ±S9, 20 h −S9)
1 | O=[N+]([O-])c1cn2c(n1)OC[C@@H](O)C2 [M50] | ~3000 | ~6 | – | – | – | – | – | – | –
2 | O=[N+]([O-])c1cn2c(n1)OC[C@@H](OCc1ccc(OC(F)(F)F)cc1)C2 [Pretomanid, (6S)-2-nitro-6-{[4-(trifluoromethoxy)benzyl]oxy}-6,7-dihydro-5H-imidazo[2,1-b][1,3]oxazine] | – | – | negative | did not significantly increase | did not affect erythropoiesis | negative | no cytotoxicity was observed | did not significantly increase | negative
